Data on one compound can be found in US20250236892A1, “Inhibition of NHEJ, MMEJ, and 53BP1 Promotes High Levels of HDR” (Integrated DNA Technologies, Inc., priority 2024, published 2025).

The structures appear in SMILES notation.

Assay [1] has as its system HEK293 cells. The experiment in a line: CAR knock-in at the TRAC locus with dsDNA Alt-R HDR donor block, PCR and Fragment Analyzer. To be noted: enhancer used alone; ART558 10 μM, V2 1 μM, Ubv-A protein 25 μM, Ubv-A mRNA 25 nM; Cas9 RNP or Cas9 mRNA. Type of assay: cell-based. On the procedure:
FIG. 3A depicts percent CAR knock-in (KI) at the TRAC locus in HEK293 cells treated with 1 μg dsDNA Alt-R HDR donor block, 2 μM Cas9 RNP, and either 25 μM tagless Ubv-A protein or 25 nM Ubv-A mRNA or no Ubv-A and incubated in media containing DMSO (no enhancer), MMEJ inhibitor ART558 (ART, 10 μM), NHEJ inhibitor Alt-R HDR enhancer V2 (V2, 1 μM), or both ART558 and V2. Percent KI was calculated using PCR followed by analysis using an Agilent Fragment Analyzer and data processing using PROSize 3.0 software to calculate the relative molar concentrations between wild-type and edited products. Error bars indicate SD, n=3. […]
HEK293 cells were harvested and resuspended in SF Cell Line Nucleofector Solution (Lonza, V4SC-2096) at a concentration of approximately 16,500 cells/μl and 18 μl of this cell suspension was used for each nucleofection. […] To quantify knock-in percentages, genomic DNA flanking the sgRNA target site was amplified by PCR, PCR products were separated on a Fragment Analyzer (Agilent Technologies), and the percentage of edited and unedited alleles was calculated using PROSize 3.0 software.
Recent publications have shown that inhibition of MMEJ through inhibition of DNA polymerase theta using small molecule inhibitors increases the rate of HDR and reduces undesired edits^16,27. […] Genomic DNA was isolated approximately 48 hours after delivery and editing was analyzed by NGS. […]

The test system of assay [2] is HEK293 cells. The experiment in a line: HDR insertion of a 6-nt EcoRI sequence at SpCas9 RNP induced DSBs with ssDNA donor, repair events measured by NGS. Format: cell-based. On the procedure:
FIG. 1 depicts inhibition of NHEJ, MMEJ, and 53BP1 leads to high levels of HDR at SpCas9 induced DSBs. HEK293 cells were treated with Cas9 RNP (2 μM) targeting 5 different sites (FIG. 1A: AADACL3; FIG. 1B: ANKRD50; FIG. 1C: ABCD4: FIG. 1D: AR; FIG. 1E: AKAP6) in the genome alongside ssDNA donor template with or without Ubv-A protein (25 μM). Cells were then plated in media containing no DMSO, DMSO control, ART, V2, or ART+V2 for 24 hours before exchanging for fresh media (see Methods for concentrations). The graphs show the percent of each repair event under each condition measured by NGS with error bars indicating SD from three replicates. Likely MMEJ deletions are determined based on the presence of microhomology of two nucleotides or greater at the ends of the deletion.
For HDR using ssDNA templates in HEK293 cells genome editing was mediated via IDT Alt-R Cas9 ribonucleoprotein, IDT Alt-R AsCas12a Ultra, or EURECA-V (a ErCas12a variant) (RNP) complexes delivered by Lonza nucleofection in concert with single-stranded oligodeoxynucleotide (ssODN) HDR repair templates. The specific repair event was the insertion of a 6-nt EcoRI sequence (5′-GAATTC-3′) at either the Cas9, AsCas12a, or ErCas12a cut site. The sgRNAs for Cas9 and crRNAs for AsCas12a corresponding to the protospacer sequences listed in Table 2 were ordered from IDT (Table 2). The HDR donor templates for Cas9 editing contain 40-nt homology arms (HA) flanking a 6 nt EcoR1 cut site insert. The HDR donor templates for AsCas12a were similar except for slightly different homology arm lengths (40 nt 5′ HA and 45 nt 3′ HA)^66. The HDR donor sequences listed in Table 3 were ordered from IDT as Alt-R HDR donor oligos (Table 3). The repair templates are homologous to the non-targeting strand of dsDNA, where targeting/non-targeting is defined with respect to the guide RNA sequence and the presence of the NGG/TTTV PAM sequence identifying the non-target strand. […]

With `Cc1cccc(N(C)C(=O)[C@@H]2[C@H](O)CCN2c2nc(C)cc(C(F)(F)F)c2C#N)c1` [ART558, reference compound], the “HDR (CAR knock-in)” value in the assay with HEK293 cells [1] is listed as “minimal effect on HDR”. Moreover, the HDR result with HEK293 cells [2] (10 μM ART558 alone in media 24 hours, 2 μM Cas9 RNP, 2 μM ssDNA, 5 sites) is given as “minimal boost in HDR”. In addition, in the assay on HEK293 cells [2] (10 μM ART558 alone, AKAP6 site, highest level of likely MMEJ repair events in media only condition), the “HDR, site with largest increase” value is recorded as “AKAP6”. The “rates of HDR and likely MMEJ events” value with HEK293 cells [2] (10 μM ART558 in combination with 1 μM V2, compared with ART558 plus Ubv-A) is recorded as “the effect is less pronounced”.
